Test results from US12358915B2, “METTL3 inhibitory compounds” (STORM THERAPEUTICS LTD., priority 2019, dated 2025).
Structures can show the parent of a compound that is named as a salt.

Biological target: T1, METTL3/14 (Homo sapiens, UniProt Q86U44)
T1 construct: The enzyme used was full-length his-tagged METTL3; His; made in house
Assay: METTL3/14 methyltransferase assay (METTL3_14 RFMS, RapidFire mass spectrometry);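 note: recombinant His-tagged METTL3 with FLAG-tagged METTL14 from baculovirus, SAH product quantified by mass spectrometry against isotope-labelled internal standards, 60 min at room temperature, scaled between no-RNA and DMSO-only wells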
Assay type: biochemical
Details: 5 nM METTL3/14, 0.2 μM RNA substrate, 0.5 μM SAM; lower limit of the assay IC50=5 nM; Compounds 1-62; read-out: METTL3_14 RFMS IC50

T1 sequence (Q86U44 whole entry): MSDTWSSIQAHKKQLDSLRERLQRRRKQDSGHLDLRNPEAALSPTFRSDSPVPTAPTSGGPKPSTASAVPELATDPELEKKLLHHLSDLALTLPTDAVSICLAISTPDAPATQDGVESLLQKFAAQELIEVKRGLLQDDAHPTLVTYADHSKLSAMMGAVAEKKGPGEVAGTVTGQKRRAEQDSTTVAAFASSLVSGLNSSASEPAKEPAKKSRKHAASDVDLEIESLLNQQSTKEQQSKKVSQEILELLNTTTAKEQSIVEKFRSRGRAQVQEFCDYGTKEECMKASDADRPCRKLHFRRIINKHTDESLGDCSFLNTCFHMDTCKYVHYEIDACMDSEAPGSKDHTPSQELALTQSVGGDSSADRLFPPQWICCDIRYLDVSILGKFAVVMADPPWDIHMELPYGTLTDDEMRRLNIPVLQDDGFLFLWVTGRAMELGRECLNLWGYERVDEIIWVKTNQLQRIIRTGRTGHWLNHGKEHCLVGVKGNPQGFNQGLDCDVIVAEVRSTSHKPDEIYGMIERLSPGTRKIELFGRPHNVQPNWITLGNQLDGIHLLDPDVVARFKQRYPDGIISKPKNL
T1 sequence (Q9HCE5 whole entry partner): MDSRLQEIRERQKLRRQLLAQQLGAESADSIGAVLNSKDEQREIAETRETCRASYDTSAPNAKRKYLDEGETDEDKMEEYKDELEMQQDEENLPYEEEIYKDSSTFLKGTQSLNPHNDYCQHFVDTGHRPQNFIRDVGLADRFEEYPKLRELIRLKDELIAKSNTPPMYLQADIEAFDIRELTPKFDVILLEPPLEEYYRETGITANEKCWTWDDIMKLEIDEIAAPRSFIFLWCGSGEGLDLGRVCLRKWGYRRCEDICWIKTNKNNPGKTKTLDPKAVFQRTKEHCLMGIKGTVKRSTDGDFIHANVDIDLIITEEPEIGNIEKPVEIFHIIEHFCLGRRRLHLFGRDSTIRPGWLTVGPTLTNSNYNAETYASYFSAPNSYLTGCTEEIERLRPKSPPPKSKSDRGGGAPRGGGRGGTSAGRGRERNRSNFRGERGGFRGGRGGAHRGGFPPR

Row | SMILES | IC50 [nM]
1 | COc1cccc(-c2ccc3nc(CNC(=O)c4cccc5[nH]ncc45)cn3c2)c1 [Compound 34, N-{[6-(3-methoxyphenyl)imidazo[1,2-a]pyridin-2-yl]methyl}-1H-indazole-4-carboxamide] | 5350
2 | O=C(NCc1cn2cc(-c3ccn[nH]3)ccc2n1)c1cccc2[nH]ncc12 [Compound 35, N-{[6-(1H-pyrazol-5-yl)imidazo[1,2-a]pyridin-2-yl]methyl}-1H-indazole-4-carboxamide] | 15800
3 | Cc1ccc2nc(CNC(=O)c3cc(=O)n4cc(Cl)ccc4n3)cn2c1 [Compound 21, 7-chloro-N-({6-methylimidazo[1,2-a]pyridin-2-yl}methyl)-4-oxo-4H-pyrido[1,2-a]pyrimidine-2-carboxamide] | 3060
4 | O=C(NCc1cn2cc(Nc3cccnc3)ccc2n1)c1cccc2[nH]ncc12 [Compound 37, N-({6-[(pyridin-3-yl)amino]imidazo[1,2-a]pyridin-2-yl}methyl)-1H-indazole-4-carboxamide] | 4740
5 | O=C(NCc1cn2cc(CNCCO)ccc2n1)c1cc(=O)n2ccccc2n1 [Compound 52, N-[(6-{[(2-hydroxyethyl)amino]methyl}imidazo[1,2-a]pyridin-2-yl)methyl]-4-oxo-4H-pyrido[1,2-a]pyrimidine-2-carboxamide] | 267
6 | NCc1ccc2nc(CNC(=O)c3cc(=O)n4ccccc4n3)cn2c1 [Compound 50, N-{[6-(aminomethyl)imidazo[1,2-a]pyridin-2-yl]methyl}-4-oxo-4H-pyrido[1,2-a]pyrimidine-2-carboxamide] | 272
7 | O=C(NCc1cn2cc(CNCCCc3ccccc3)ccc2n1)c1cc(=O)n2ccccc2n1 [Compound 55, 4-oxo-N-[(6-{[(3-phenylpropyl)amino]methyl}imidazo[1,2-a]pyridin-2-yl)methyl]-4H-pyrido[1,2-a]pyrimidine-2-carboxamide] | 87

Same assay, conditions: 5 nM METTL3/14, 0.2 μM RNA substrate, 0.5 μM SAM; lower limit of the assay IC50=5 nM; Compounds 63-265; read-out: METTL3_14 RFMS IC50

Row | SMILES | IC50 [nM]
8 | O=C(NCc1cn2cc(CNCCF)ccc2n1)c1cc(=O)n2ccccc2n1 [Compound 128, N-[(6-{[(2-fluoroethyl)amino]methyl}imidazo [1,2-a]pyridin-2-yl)methyl]-4-oxo-4H-pyrido[1,2-a] pyrimidine-2-carboxamide] | 333
9 | O=C(NCc1cn2cc(CNCC3CCCCC3)ccc2n1)c1cc(Cl)cc2[nH]ncc12 [Compound 190, 6-chloro-N-[(6-{[(cyclohexylmethyl)amino]methyl}imidazo[1,2-a]pyridin-2-yl)methyl]-1H-indazole-4-carboxamide] | 56.1
10 | CC(C)(C)C(=O)N1CCN(Cc2ccc3nc(CNC(=O)c4cc(=O)n5ccccc5n4)cn3c2)CC1 [Compound 166, N-[(6-{[4-(2,2-dimethylpropanoyl)piperazin-1-yl]methyl}imidazo[1,2-a]pyridin-2-yl)methyl]-4-oxo-4H-pyrido [1,2-a]pyrimidine-2-carboxamide] | 10500
11 | C[C@H](NCc1ccc2nc(CNC(=O)c3cc(=O)n4ccccc4n3)cn2c1)c1ccccc1 [Compound 76, 4-oxo-N-{[6-({[(1S)-1-phenylethyl]amino}methyl)imidazo [1,2-a]pyridin-2-yl]methyl}-4H-pyrido[1,2-a] pyrimidine-2-carboxamide] | 30
12 | CC(C)(C)[C@H]1COC[C@@H](c2ccc3nc(CNC(=O)c4cc(=O)n5ccccc5n4)cn3c2)N1 [Example 228, N-({6-[(3R,5S)-5-tert-butylmorpholin-3-yl]imidazo[1,2-a]pyridin-2-yl}methyl)-4-oxo-4H-pyrido[1,2-a]pyrimidine-2-carboxamide] | 239
13 | O=C(NCc1cn2cc(CNCc3cccnc3)ccc2n1)c1cc(=O)n2ccccc2n1 [Compound 70, 4-oxo-N-{[6-({[(pyridin-3-yl)methyl]amino}methyl)imidazo [1,2-a]pyridin-2-yl]methyl}-4H-pyrido[1,2-a]pyrimidine-2-carboxamide] | 143
14 | CC(C)(C)OC(=O)N1CCCC(CNCc2ccc3nc(CNC(=O)c4cc(=O)n5ccccc5n4)cn3c2)C1 (stereo not drawn) [Compound 100, tert-butyl 3-{[({2-[({4-oxo-4H-pyrido[1,2-a]pyrimidin-2-yl}formamido)methyl]imidazo [1,2-a]pyridin-6-yl}methyl)amino]methyl}piperidine-1-carboxylate] | 1380
15 | CC(NCC1CCCCC1)c1ccc2nc(CNC(=O)c3cc(=O)n4ccccc4n3)cn2c1 (stereo not drawn) [Compound 189, N-[(6-{1-[(cyclohexyl-methyl)amino]ethyl}imidazo [1,2-a]pyridin-2-yl)methyl]-4-oxo-4H-pyrido[1,2-a]pyrimidine-2-carboxamide] | 132
16 | CC1(CNCc2ccc3nc(CNC(=O)c4cc(=O)c5ccccc5o4)cn3c2)CCCCC1 [Compound 222, N-{[6-({[(1-methylcyclohexyl)methyl]amino}methyl)imidazo [1,2-a]pyridin-2-yl]methyl}-4-oxo-4H-chromene-2-carboxamide] | 33.9
17 | O=C(NCc1cn2cc(CNCC3CCCO3)ccc2n1)c1cc(=O)n2ccccc2n1 (stereo not drawn) [Compound 95, 4-oxo-N-{[6-({[(oxolan-2-yl)methyl]amino}methyl)imidazo [1,2-a]pyridin-2-yl]methyl}-4H-pyrido[1,2-a]pyrimidine-2-carboxamide] | 74.4
18 | O=C(NCc1cn2cc(CNCc3cccc(C4CC4)c3)ccc2n1)c1cc(=O)n2ccccc2n1 [Compound 92, N-{[6-({[(3-cyclopropyl-phenyl)methyl]amino}methyl)imidazo[1,2-a]pyridin-2-yl]methyl}-4-oxo-4H-pyrido[1,2-a]pyrimidine-2-carboxamide] | 112
19 | CC(C)(C)C1CCN(Cc2ccc3nc(CNC(=O)c4cc(=O)n5ccccc5n4)cn3c2)CC1 [Compound 161, N-({6-[(4-tert-butylpiperidin-1-yl)methyl]imidazo[1,2-a]pyridin-2-yl}methyl)-4-oxo-4H-pyrido[1,2-a]pyrimidine-2-carboxamide] | 99.1
20 | O=C(NCc1cn2cc(CNCC3CCCCC3)ccc2n1)c1cccc2[nH]ncc12 [Compound 182, N-[(6-{[(cyclohexyl-methyl)amino]methyl}imidazo[1,2-a]pyridin-2-yl)methyl]-1H-indazole-4-carboxamide] | 179
21 | Cc1ccc2nc(Cn3cc(-c4cccc5[nH]ncc45)nn3)cn2c1 [Compound 69, 4-[1-({6-methylimidazo[1,2-a]pyridin-2-yl}methyl)-1H-1,2,3-triazol-4-yl]-1H-indazole] | 1340
22 | O=C(NCc1cn2cc(CNCCC3CCCCO3)ccc2n1)c1cc(=O)n2ccccc2n1 (stereo not drawn) [Compound 154, N-{[6-({[2-(oxan-2-yl)ethyl]amino}methyl)imidazo [1,2-a]pyridin-2-yl]methyl}-4-oxo-4H-pyrido[1,2-a] pyrimidine-2-carboxamide] | 1180
23 | O=C(NCc1cn2cc(CNCC3CCCCC3)ccc2n1)c1cc(=O)n2c(n1)CCCC2 [Compound 175, N-[(6-{[(cyclohexylmethyl)amino]methyl}imidazo[1,2-a]pyridin-2-yl)methyl]-4-oxo-4H,6H,7H,8H, 9H-pyrido[1,2-a]pyrimidine-2-carboxamide] | 214
24 | O=C(NCc1cn2cc(CNC[C@@H]3CCCO3)ccc2n1)c1cc(=O)n2ccccc2n1 [Compound 117, 4-oxo-N-({6-[({[(2S)-oxolan-2-yl]methyl}amino)methyl]imidazo[1,2-a]pyridin-2-yl}methyl)-4H-pyrido[1,2-a] pyrimidine-2-carboxamide] | 83.7

Same assay, conditions: 5 nM METTL3/14, 0.2 μM RNA substrate, 0.5 μM SAM; lower limit of the assay IC50=5 nM; Compounds 266-351; read-out: METTL3_14 RFMS IC50

Row | SMILES | IC50 [nM]
25 | CC1CNC(c2ccc3nc(CNC(=O)c4cc(=O)n5ccccc5n4)cn3c2)CO1 (stereo not drawn) [Example 331] | 3440
26 | O=C(NCc1cn2cc(CN3CC4CCC3CC4)ccc2n1)c1cc(=O)n2ccccc2n1 [Compound 351, N-{[6-({2-azabicyclo[2.2.2]octan-2-yl}methyl)imidazo[1,2-a]pyridin-2-yl]methyl}-4-oxo-4H-pyrido[1,2-a]pyrimidine-2-carboxamide] | 24.1
27 | OCc1ccc2nc(Cn3cc(-c4cc(F)cc5[nH]ncc45)nn3)cn2c1 [Example 317, [2-[[4-(6-fluoro-1H-indazol-4-yl)triazol-1-yl]methyl]imidazo[1,2-a]pyridin-6-yl]methanol] | 462
28 | O=C(NCc1cn2cc(C3CNCCN3)ccc2n1)c1cc(=O)n2ccccc2n1 (stereo not drawn) [Example 333, 4-oxo-N-[(6-piperazin-2-ylimidazo[1,2-a]pyridin-2-yl)methyl]pyrido[1,2-a]pyrimidine-2-carboxamide] | 1230
29 | O=C(NCc1cn2cc(CNC[C@H]3C[C@H]4CC[C@@H]3C4)ccc2n1)c1cc(=O)n2ccccc2n1 [Compound 348, N-({6-[({[(1R,2S,4S)-bicyclo[2.2.1]heptan-2-yl]methyl}amino)methyl]imidazo[1,2-a]pyridin-2-yl}methyl)-4-oxo-4H-pyrido[1,2-a]pyrimidine-2-carboxamide] | 9.02
30 | Cc1ccc2nc(Cn3cnc(-c4cccc5[nH]ncc45)c3)cn2c1 [Example 329, 2-[[4-(1H-indazol-4-yl)imidazol-1-yl]methyl]-6-methyl-imidazo[1,2-a]pyridine formate] | 1640

Same assay, conditions: primary enzyme screen, inhibition of RNA methyltransferase activity; lower limit of the assay is IC50=5 nM; read-out: IC50

Row | SMILES | IC50 [nM]
31 | O=C(NCc1cn2cc(CNCc3ccccc3)ccc2n1)c1cc(=O)n2ccccc2n1 [Compound 54, N-({6-[(benzylamino)methyl]imidazo[1,2-a]pyridin-2-yl}methyl)-4-oxo-4H-pyrido[1,2-a]pyrimidine-2-carboxamide] | 16

Same assay, conditions: read-out: IC50

Row | SMILES | IC50 [nM]
32 | O=C(NCc1cn2cc(CNCCCc3ccccc3)ccc2n1)c1cc(=O)n2ccccc2n1 [Compound 55, 4-oxo-N-[(6-{[(3-phenylpropyl)amino]methyl}imidazo[1,2-a]pyridin-2-yl)methyl]-4H-pyrido[1,2-a]pyrimidine-2-carboxamide] | 66

Same assay, conditions: read-out: METTL3_14 RFMS IC50

Row | SMILES | IC50 [nM]
33 | O=C(NCc1cn2ccc(CNCCc3ccccc3)cc2n1)c1cc(=O)n2ccccc2n1 [Compound 243, 4-oxo-N-[(7-{[(2-phenylethyl)amino]methyl}imidazo[1,2-a]pyridin-2-yl)methyl]-4H-pyrido[1,2-a]pyrimidine-2-carboxamide] | 1450
